Experimental data published in patent US11117900B2 (Vertex Pharmaceuticals Incorporated, priority 2012, dated 2021).
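Also: compound concentration needed to lower the IC50 of Cisplatin alone by a set fold.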

These molecules were tested on HCT116 colorectal cancer cells (assay: Cisplatin sensitization assay (96 h MTS cell viability)). Settings: Cisplatin sensitization value.
Type: cell-based
Summary of the method: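 The MTS viability read, after 1 h with reagent, followed 96 h of co-treatment at 37° C. in 5% CO2. Both compound and cisplatin were titrated 2-fold from a 10 μM top final concentration in a complete concentration matrix on HCT116 cells. Scores +++/++/+ reflect cisplatin sensitization value ranges.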
In the case of `CN1CCC(S(=O)(=O)N2CCN(c3ccncc3NC(=O)c3c(N)nn4cc(F)cnc34)CC2)CC1` [I-N-188, 2-amino-6-fluoro-N-(4-(4-((1-methylpiperidin-4-yl)sulfonyl)piperazin-1-yl)pyridin-3-yl)pyrazolo[1,5-a]pyrimidine-3-carboxamide], the “Cisplatin Sensitization Assay” value is reported as “+++ (Compounds with a Cisplatin sensitization value of <0.02 μM are marked with “+++.”)”. In the case of `Nc1nn2cc(F)cnc2c1C(=O)Nc1cncc(F)c1N1CCC(N2CCOCC2)CC1` [I-N-189, 2-amino-6-fluoro-N-(5-fluoro-4-(4-morpholinopiperidin-1-yl)pyridin-3-yl)pyrazolo[1,5-a]pyrimidine-3-carboxamide], the “Cisplatin Sensitization Assay” value is reported as “+++ (Compounds with a Cisplatin sensitization value of <0.02 μM are marked with “+++.”)”. In the case of `CS(=O)(=O)C1CCN(c2ccncc2NC(=O)c2c(N)nn3cc(F)cnc23)CC1` [I-N-190, 2-amino-6-fluoro-N-(4-(4-(methylsulfonyl)piperidin-1-yl)pyridin-3-yl)pyrazolo[1,5-a]pyrimidine-3-carboxamide], the “Cisplatin Sensitization Assay” value is reported as “+++ (Compounds with a Cisplatin sensitization value of <0.02 μM are marked with “+++.”)”. In the case of `CN1CCN(C(=O)C2CCN(c3c(F)cncc3NC(=O)c3c(N)nn4cc(F)cnc34)C2)CC1` (centres unmarked) [I-N-191, 2-amino-6-fluoro-N-(5-fluoro-4-(3-(4-methylpiperazine-1-carbonyl)pyrrolidin-1-yl)pyridin-3-yl)pyrazolo[1,5-a]pyrimidine-3-carboxamide], the “Cisplatin Sensitization Assay” value is reported as “+ (Compounds with a Cisplatin sensitization value >0.2 μM but <5 μM are marked with “+.”)”. `CN1CCN(CC2CCN(c3c(F)cncc3NC(=O)c3c(N)nn4cc(C5(C#N)CC5)cnc34)CC2)CC1` [I-N-192, 2-amino-6-(1-cyanocyclopropyl)-N-(5-fluoro-4-(4-((4-methylpiperazin-1-yl)methyl)piperidin-1-yl)pyridin-3-yl)pyrazolo[1,5-a]pyrimidine-3-carboxamide] was tested, and the “Cisplatin Sensitization Assay” value was “+++ (Compounds with a Cisplatin sensitization value of <0.02 μM are marked with “+++.”)”. `CN1CCN(CC2CCN(c3c(F)cncc3NC(=O)c3c(N)nn4cc(F)cnc34)CC2)C(=O)C1` [I-N-193, 2-amino-6-fluoro-N-(5-fluoro-4-(4-((4-methyl-2-oxopiperazin-1-yl)methyl)piperidin-1-yl)pyridin-3-yl)pyrazolo[1,5-a]pyrimidine-3-carboxamide] was tested, and the “Cisplatin Sensitization Assay” value was “+++ (Compounds with a Cisplatin sensitization value of <0.02 μM are marked with “+++.”)”. `CN1CC(C(=O)N2CCN(c3c(F)cncc3NC(=O)c3c(N)nn4cc(F)cnc34)CC2)C1` [I-N-194] was tested, and the “Cisplatin Sensitization Assay” value was “+++ (Compounds with a Cisplatin sensitization value of <0.02 μM are marked with “+++.”)”. For `Nc1nn2cc(F)cnc2c1C(=O)Nc1cnccc1N1CCN(S(=O)(=O)C2COC2)CC1` [I-N-195, 2-amino-6-fluoro-N-(4-(4-(oxetan-3-ylsulfonyl)piperazin-1-yl)pyridin-3-yl)pyrazolo[1,5-a]pyrimidine-3-carboxamide], the “Cisplatin Sensitization Assay” value was “+++ (Compounds with a Cisplatin sensitization value of <0.02 μM are marked with “+++.”)”. `Nc1nn2cc(F)cnc2c1C(=O)Nc1cnccc1N1CCC(S(=O)(=O)N2CCN3CCC2CC3)CC1` [I-N-196, N-(4-(4-(1,4-diazabicyclo[3.2.2]nonan-4-ylsulfonyl)piperidin-1-yl)pyridin-3-yl)-2-amino-6-fluoropyrazolo[1,5-a]pyrimidine-3-carboxamide] was tested, and the “Cisplatin Sensitization Assay” value was “+++ (Compounds with a Cisplatin sensitization value of <0.02 μM are marked with “+++.”)”. With `Nc1nn2cc(F)cnc2c1C(=O)Nc1cnccc1N1CCC(CN2CCC(F)(F)C2)CC1` [I-N-197, 2-amino-N-(4-(4-((3,3-difluoropyrrolidin-1-yl)methyl)piperidin-1-yl)pyridin-3-yl)-6-fluoropyrazolo[1,5-a]pyrimidine-3-carboxamide] the “Cisplatin Sensitization Assay” value was “+++ (Compounds with a Cisplatin sensitization value of <0.02 μM are marked with “+++.”)”. In the case of `CN1CCC[C@H]1C(=O)N1CCN(c2ccncc2NC(=O)c2c(N)nn3cc(F)cnc23)CC1` [I-N-198, (S)-2-amino-6-fluoro-N-(4-(4-(1-methylpyrrolidine-2-carbonyl)piperazin-1-yl)pyridin-3-yl)pyrazolo[1,5-a]pyrimidine-3-carboxamide], the “Cisplatin Sensitization Assay” value is reported as “++ (Compounds with a Cisplatin sensitization value >0.02 μM but <0.2 μM are marked with “++.”)”. `CN1CCC[C@@H]1C(=O)N1CCN(c2ccncc2NC(=O)c2c(N)nn3cc(F)cnc23)CC1` [I-N-199, (R)-2-amino-6-fluoro-N-(4-(4-(1-methylpyrrolidine-2-carbonyl)piperazin-1-yl)pyridin-3-yl)pyrazolo[1,5-a]pyrimidine-3-carboxamide] was tested, and the “Cisplatin Sensitization Assay” value was “+++ (Compounds with a Cisplatin sensitization value of <0.02 μM are marked with “+++.”)”. `Nc1nn2cc(F)cnc2c1C(=O)Nc1cnccc1N1CCC(S(=O)(=O)C2COC2)CC1` [I-N-200, 2-amino-6-fluoro-N-(4-(4-(oxetan-3-ylsulfonyl)piperidin-1-yl)pyridin-3-yl)pyrazolo[1,5-a]pyrimidine-3-carboxamide] was tested, and the “Cisplatin Sensitization Assay” value was “+++ (Compounds with a Cisplatin sensitization value of <0.02 μM are marked with “+++.”)”. For `Nc1nn2cc(F)cnc2c1C(=O)Nc1cncc(F)c1N1CCN(S(=O)(=O)C2COC2)CC1` [I-N-201], the “Cisplatin Sensitization Assay” value was “+++ (Compounds with a Cisplatin sensitization value of <0.02 μM are marked with “+++.”)”. `Nc1nn2cc(F)cnc2c1C(=O)Nc1cncc(F)c1N1CCN(C(=O)C2CC3CCCCN3C2)CC1` (centres unmarked) [I-N-203, 2-amino-6-fluoro-N-(5-fluoro-4-(4-(octahydroindolizine-2-carbonyl)piperazin-1-yl)pyridin-3-yl)pyrazolo[1,5-a]pyrimidine-3-carboxamide] was tested, and the “Cisplatin Sensitization Assay” value was “+++ (Compounds with a Cisplatin sensitization value of <0.02 μM are marked with “+++.”)”. For `CC(C)N1CCCC1C(=O)N1CCN(c2c(F)cncc2NC(=O)c2c(N)nn3cc(F)cnc23)CC1` (centres unmarked) [I-N-205, 2-amino-6-fluoro-N-(5-fluoro-4-(4-(1-isopropylpyrrolidine-2-carbonyl)piperazin-1-yl)pyridin-3-yl)pyrazolo[1,5-a]pyrimidine-3-carboxamide], the “Cisplatin Sensitization Assay” value was “++ (Compounds with a Cisplatin sensitization value >0.02 μM but <0.2 μM are marked with “++.”)”. In the case of `CC(C)N1CCC(C(=O)N2CCN(c3c(F)cncc3NC(=O)c3c(N)nn4cc(F)cnc34)CC2)C1` (centres unmarked) [I-N-206, 2-amino-6-fluoro-N-(5-fluoro-4-(4-(1-isopropylpyrrolidine-3-carbonyl)piperazin-1-yl)pyridin-3-yl)pyrazolo[1,5-a]pyrimidine-3-carboxamide], the “Cisplatin Sensitization Assay” value is reported as “+++ (Compounds with a Cisplatin sensitization value of <0.02 μM are marked with “+++.”)”. For `COCCS(=O)(=O)C1CCN(c2ccncc2NC(=O)c2c(N)nn3cc(F)cnc23)CC1` [I-N-208, 2-amino-6-fluoro-N-(4-(4-((2-methoxyethyl)sulfonyl)piperidin-1-yl)pyridin-3-yl)pyrazolo[1,5-a]pyrimidine-3-carboxamide], the “Cisplatin Sensitization Assay” value was “+++ (Compounds with a Cisplatin sensitization value of <0.02 μM are marked with “+++.”)”. For `CN1CCN(c2ccncc2NC(=O)c2c(N)nn3cc(F)cnc23)CC1=O` [I-N-209, 2-amino-6-fluoro-N-(4-(4-methyl-3-oxopiperazin-1-yl)pyridin-3-yl)pyrazolo[1,5-a]pyrimidine-3-carboxamide], the “Cisplatin Sensitization Assay” value was “+++ (Compounds with a Cisplatin sensitization value of <0.02 μM are marked with “+++.”)”. In the case of `Nc1nn2cc(F)cnc2c1C(=O)Nc1cnccc1N1CCS(=O)(=O)CC1` [I-N-210, 2-amino-N-(4-(1,1-dioxidothiomorpholino)pyridin-3-yl)-6-fluoropyrazolo[1,5-a]pyrimidine-3-carboxamide], the “Cisplatin Sensitization Assay” value is reported as “+++ (Compounds with a Cisplatin sensitization value of <0.02 μM are marked with “+++.”)”. In the case of `Nc1nn2cc(F)cnc2c1C(=O)Nc1cncc(F)c1N1CCN(C(=O)C2CCN(C3COC3)CC2)CC1` [I-N-211, 2-amino-6-fluoro-N-(5-fluoro-4-(4-(1-(oxetan-3-yl)piperidine-4-carbonyl)piperazin-1-yl)pyridin-3-yl)pyrazolo[1,5-a]pyrimidine-3-carboxamide], the “Cisplatin Sensitization Assay” value is reported as “++ (Compounds with a Cisplatin sensitization value >0.02 μM but <0.2 μM are marked with “++.”)”. `CN1CCN(c2c(F)cncc2NC(=O)c2c(N)nn3cc(F)cnc23)CC1=O` [I-N-212, 2-amino-6-fluoro-N-(5-fluoro-4-(4-methyl-3-oxopiperazin-1-yl)pyridin-3-yl)pyrazolo[1,5-a]pyrimidine-3-carboxamide] was tested, and the “Cisplatin Sensitization Assay” value was “+++ (Compounds with a Cisplatin sensitization value of <0.02 μM are marked with “+++.”)”. With `Nc1nn2cc(F)cnc2c1C(=O)Nc1cncc(F)c1N1CCC(CN2CCCC2=O)CC1` [I-N-213, 2-amino-6-fluoro-N-(5-fluoro-4-(4-((2-oxopyrrolidin-1-yl)methyl)piperidin-1-yl)pyridin-3-yl)pyrazolo[1,5-a]pyrimidine-3-carboxamide] the “Cisplatin Sensitization Assay” value was “+++ (Compounds with a Cisplatin sensitization value of <0.02 μM are marked with “+++.”)”. With `CN1CCCCC1C(=O)N1CCN(c2c(F)cncc2NC(=O)c2c(N)nn3cc(F)cnc23)CC1` (centres unmarked) [I-N-214, 2-amino-6-fluoro-N-(5-fluoro-4-(4-(1-methylpiperidine-2-carbonyl)piperazin-1-yl)pyridin-3-yl)pyrazolo[1,5-a]pyrimidine-3-carboxamide] the “Cisplatin Sensitization Assay” value was “++ (Compounds with a Cisplatin sensitization value >0.02 μM but <0.2 μM are marked with “++.”)”. For `CS(=O)(=O)CC1CCN(c2ccncc2NC(=O)c2c(N)nn3cc(F)cnc23)CC1` [I-N-215, 2-amino-6-fluoro-N-(4-(4-((methylsulfonyl)methyl)piperidin-1-yl)pyridin-3-yl)pyrazolo[1,5-a]pyrimidine-3-carboxamide], the “Cisplatin Sensitization Assay” value was “+++ (Compounds with a Cisplatin sensitization value of <0.02 μM are marked with “+++.”)”. With `CN1CC2(CCN(c3ccncc3NC(=O)c3c(N)nn4cc(F)cnc34)CC2)OC1=O` [I-N-216, 2-amino-6-fluoro-N-(4-(3-methyl-2-oxo-1-oxa-3,8-diazaspiro[4.5]decan-8-yl)pyridin-3-yl)pyrazolo[1,5-a]pyrimidine-3-carboxamide] the “Cisplatin Sensitization Assay” value was “+++ (Compounds with a Cisplatin sensitization value of <0.02 μM are marked with “+++.”)”.
